# Test results taken from ChEMBL document CHEMBL1144019 (Bioorg Med Chem, 2008).
# Assays:
# Assay type in all cases: functional
# [1] = system: Enterobacter cloacae; test: Antibacterial activity against AmpC producing Enterobacter cloacae SR-4321 by standard serial agar dilution method
# [2] = system: Staphylococcus aureus; test: Antibacterial activity against Staphylococcus aureus Smith by standard serial agar dilution method
# [3] = system: Enterobacter cloacae; test: Antibacterial activity against Enterobacter cloacae ATCC 13047 by standard serial agar dilution method
# [4] = system: Streptococcus pneumoniae; test: Antibacterial activity against penicillin-resistant Streptococcus pneumoniae SR-16675 by standard serial agar dilution method
# [5] = system: Escherichia coli; test: Antibacterial activity against Toho 2 producing Escherichia coli by standard serial agar dilution method
# [6] = system: Haemophilus influenzae; test: Antibacterial activity against beta-lactamase negative ampicillin-resistant Haemophilus influenzae SR-11435 by standard serial agar dilution method
# [7] = system: Pseudomonas aeruginosa; test: Antibacterial activity against Pseudomonas aeruginosa SR24 by standard serial agar dilution method
# [8] = system: Pseudomonas aeruginosa; test: Antibacterial activity against AmpC hyperproducing Pseudomonas aeruginosa SR24-12 by standard serial agar dilution method
# [9] = system: Pseudomonas aeruginosa; test: Antibacterial activity against Pseudomonas aeruginosa SR-5393 by standard serial agar dilution method
# [10] = system: Pseudomonas aeruginosa; test: Antibacterial activity against imipenem-resistant Pseudomonas aeruginosa SR-6554 by standard serial agar dilution method
# [11] = system: Moraxella catarrhalis; test: Antibacterial activity against Moraxella catarrhalis ATCC 43617 by standard serial agar dilution method
# [12] = system: Escherichia coli; test: Antibacterial activity against Escherichia coli SR-21003 by standard serial agar dilution method
# [13] = system: Haemophilus influenzae; test: Antibacterial activity against Haemophilus influenzae ATCC 49766 by standard serial agar dilution method
SMILES,MIC [1] [µg/mL],MIC [2] [µg/mL],MIC [3] [µg/mL],MIC [4] [µg/mL],MIC [5] [µg/mL],MIC [6] [µg/mL],MIC [7] [µg/mL],MIC [8] [µg/mL],MIC [9] [µg/mL],MIC [10] [µg/mL],MIC [11] [µg/mL],MIC [12] [µg/mL],MIC [13] [µg/mL]
C[C@H](O/N=C(\C(=O)N[C@@H]1C(=O)N2C(C(=O)[O-])=C(C[n+]3cccc4c3ccn4CCNS(N)(=O)=O)CS[C@H]12)c1nc(N)sc1Cl)C(=O)O,4,2,0.5,2,2,0.063,1,4,4,8,0.016,0.25,0.032
COC(=O)NCCn1ccc2c1ccc[n+]2CC1=C(C(=O)[O-])N2C(=O)[C@@H](NC(=O)/C(=N\O[C@@H](C)C(=O)O)c3nc(N)sc3Cl)[C@H]2SC1,4,4,1,4,4,0.063,2,8,8,16,0.032,0.5,0.032
CNCCn1ncc2c1ccc[n+]2CC1=C(C(=O)[O-])N2C(=O)[C@@H](NC(=O)/C(=N\O[C@@H](C)C(=O)O)c3nc(N)sc3Cl)[C@H]2SC1,4,4,1,4,4,0.125,1,8,4,16,0.032,1,0.125
C[C@H](O/N=C(\C(=O)N[C@@H]1C(=O)N2C(C(=O)[O-])=C(C[n+]3cccc4[nH]ccc43)CS[C@H]12)c1nc(N)sc1Cl)C(=O)O,2,1,0.25,2,1,0.032,1,4,2,8,0.016,0.25,0.016
CNCCn1ccc2c[n+](CC3=C(C(=O)[O-])N4C(=O)[C@@H](NC(=O)/C(=N\O[C@@H](C)C(=O)O)c5nc(N)sc5Cl)[C@H]4SC3)ccc21,8,4,0.5,4,2,0.125,1,4,2,8,0.032,0.25,0.032
C[C@H](O/N=C(\C(=O)N[C@@H]1C(=O)N2C(C(=O)[O-])=C(C[n+]3cccc4c3nc(N)n4C3CCNCC3)CS[C@H]12)c1nc(N)sc1Cl)C(=O)O,2,2,0.25,2,2,0.063,0.5,2,2,4,0.016,0.25,0.016
CNCCn1nnc2c1ccc[n+]2CC1=C(C(=O)[O-])N2C(=O)[C@@H](NC(=O)/C(=N\O[C@@H](C)C(=O)O)c3nc(N)sc3Cl)[C@H]2SC1,8,4,0.5,2,2,0.5,2,64,8,64,0.032,0.25,0.125
CNCCCc1cc[n+](CC2=C(C(=O)[O-])N3C(=O)[C@@H](NC(=O)/C(=N\O[C@@H](C)C(=O)O)c4nc(N)sc4Cl)[C@H]3SC2)cc1,8,8,1,4,4,0.25,1,8,4,16,0.032,1,0.125
C[C@H](N)CCn1c(N)nc2c1ccc[n+]2CC1=C(C(=O)[O-])N2C(=O)[C@@H](NC(=O)/C(=N\O[C@@H](C)C(=O)O)c3nc(N)sc3Cl)[C@H]2SC1,2,2,0.5,2,2,0.063,0.5,4,2,8,0.008,0.25,0.016
C[C@H](O/N=C(\C(=O)N[C@@H]1C(=O)N2C(C(=O)[O-])=C(C[n+]3ccc(NC4CNC4)cc3)CS[C@H]12)c1nc(N)sc1Cl)C(=O)O,4,2,0.5,4,4,0.25,0.5,4,2,8,0.016,0.5,0.063
C[C@H](O/N=C(\C(=O)N[C@@H]1C(=O)N2C(C(=O)[O-])=C(C[n+]3cccc4c3ccn4CCNC(N)=O)CS[C@H]12)c1nc(N)sc1Cl)C(=O)O,4,4,0.5,4,2,0.063,1,8,4,16,0.032,0.25,0.032
C[C@H](O/N=C(\C(=O)N[C@@H]1C(=O)N2C(C(=O)[O-])=C(C[n+]3cccc4c3nc(N)n4CCNCCO)CS[C@H]12)c1nc(N)sc1Cl)C(=O)O,2,4,0.5,2,4,0.063,1,4,4,16,0.016,0.5,0.032
C[C@H](O/N=C(\C(=O)N[C@@H]1C(=O)N2C(C(=O)[O-])=C(C[n+]3cccc4c3nc(N)n4[C@H]3CCNC3)CS[C@H]12)c1nc(N)sc1Cl)C(=O)O,2,4,0.5,2,2,0.125,0.5,2,2,8,0.016,0.25,0.032
CNCCCn1c(N)cc2c1ccc[n+]2CC1=C(C(=O)[O-])N2C(=O)[C@@H](NC(=O)/C(=N\O[C@@H](C)C(=O)O)c3nc(N)sc3Cl)[C@H]2SC1,2,1,0.5,4,2,0.063,0.5,2,2,16,0.016,0.25,0.016
CNCCn1c(N)nc2c[n+](CC3=C(C(=O)[O-])N4C(=O)[C@@H](NC(=O)/C(=N\O[C@@H](C)C(=O)O)c5nc(N)sc5Cl)[C@H]4SC3)ccc21,4,16,0.5,4,1,0.125,1,4,2,8,0.032,0.25,0.032
